In patent US20150105252A1, “SUBSTITUTED PYRAZOLES AS HERBICIDES” (E I DU PONT DE NEMOURS AND COMPANY, priority 2013, published 2015):

Key:
lambsquarters [1] = experiment: Test C preemergence; format: in vivo, Chenopodium album; conditions: for Lambsquarters plant response rating: scale 0 to 100 (0 no effect, 100 complete control)
In short: (§1)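 Pre- and postemergence greenhouse screen; vehicle was a non-phytotoxic solvent mix with surfactant. Preemergence: treatment applied right after sowing into loam and sand. Postemergence: treated at 1–4 leaves. Visual rating at 13–15 days, 100 = complete control.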

blackgrass = experiment: Test C postemergence; format: in vivo, Alopecurus myosuroides
In short: as §1

ryegrass, Italian = experiment: Test C postemergence; format: in vivo, Lolium multiflorum
In short: as §1

galium = experiment: Test C postemergence; format: in vivo, Galium aparine
In short: as §1

crabgrass, large = experiment: Test C postemergence; format: in vivo, Digitaria sanguinalis
In short: as §1

foxtail, giant = experiment: Test C postemergence; format: in vivo, Setaria faberii
In short: as §1

lambsquarters [2] = experiment: Test C postemergence; format: in vivo, Chenopodium album
In short: as §1

morningglory = experiment: Test C postemergence; format: in vivo, Ipomoea coccinea
In short: as §1

nutsedge, yellow = experiment: Test C postemergence; format: in vivo, Cyperus esculentus
In short: as §1

barnyardgrass = experiment: Test C postemergence; format: in vivo, Echinochloa crus-galli
In short: as §1

oilseed rape = experiment: Test C postemergence; format: in vivo, Brassica napus
In short: as §1

waterhemp = experiment: Test C postemergence; format: in vivo, Amaranthus rudis
In short: as §1

oat, wild = experiment: Test C postemergence; format: in vivo, Avena fatua
In short: as §1

kochia = experiment: Test C postemergence; format: in vivo, Kochia scoparia
In short: as §1

velvetleaf = experiment: Test C postemergence; format: in vivo, Abutilon theophrasti
In short: as §1

[3] = Postemergence, 31 g ai/ha, visually evaluated after 13 to 15 days
[4] = postemergence, 62 g ai/ha, scale 0 to 100
[5] = postemergence, 250 g ai/ha, scale 0 to 100 (0 no effect, 100 complete control)
[6] = postemergence, 125 g ai/ha, scale 0 to 100, 0 no effect, 100 complete control

CCOc1cc(C(=O)NC2CC2)nn1Cc1ccnc(OC(F)F)c1 [Compound 133]
40: Foxtail, Giant plant response rating (foxtail, giant; [4])
35: Plant response rating, Crabgrass, Large (crabgrass, large; [5]) | Plant response rating (scale of 0 to 100 where 0 is no effect and 100 is complete control), Foxtail, Giant (foxtail, giant; [3]) | Plant response rating, Oat, Wild (oat, wild; [5]) | Plant response rating, Velvetleaf (velvetleaf; [6])
25: Plant response rating (scale of 0 to 100 where 0 is no effect and 100 is complete control), Velvetleaf (velvetleaf; [3])
70: Plant response rating (scale of 0 to 100 where 0 is no effect and 100 is complete control), Galium (galium; [3]) | Galium plant response rating (galium; [4]) | Plant response rating, Galium (galium; [6]) | Plant response rating, Velvetleaf (velvetleaf; [5])
80: Plant response rating, Galium (galium; [5]) | Plant response rating, Foxtail, Giant (foxtail, giant; [5])
90: Plant response rating, Lambsquarters (lambsquarters [2]; [5]) | Plant response rating, Lambsquarters (lambsquarters [2]; [6]) | Morningglory plant response rating (morningglory; [4]) | Plant response rating, Morningglory (morningglory; [6]) | Kochia plant response rating (kochia; [4]) | Plant response rating, Kochia (kochia; [5]) | Plant response rating, Kochia (kochia; [6])
60: Oilseed Rape plant response rating (oilseed rape; [4]) | Plant response rating (scale of 0 to 100 where 0 is no effect and 100 is complete control), Waterhemp (waterhemp; [3]) | Waterhemp plant response rating (waterhemp; [4])
55: Lambsquarters plant response rating (lambsquarters [2]; [4])
45: Velvetleaf plant response rating (velvetleaf; [4])
15: Plant response rating, Nutsedge, Yellow (nutsedge, yellow; [5]) | Plant response rating, Barnyardgrass (barnyardgrass; [5]) | Plant response rating, Oat, Wild (oat, wild; [6])
50: Plant response rating, Foxtail, Giant (foxtail, giant; [6]) | Plant response rating (scale of 0 to 100 where 0 is no effect and 100 is complete control), Lambsquarters (lambsquarters [2]; [3]) | Plant response rating (scale of 0 to 100 where 0 is no effect and 100 is complete control), Oilseed Rape (oilseed rape; [3])
75: Lambsquarters plant response rating (lambsquarters [1]; preemergence, 31 g ai/ha, visual rating, 13 to 15 days) | Plant response rating (scale of 0 to 100 where 0 is no effect and 100 is complete control), Morningglory (morningglory; [3]) | Plant response rating, Oilseed Rape (oilseed rape; [6]) | Plant response rating, Waterhemp (waterhemp; [6])
95: Plant response rating, Waterhemp (waterhemp; [5])
100: Plant response rating (scale of 0 to 100), Lambsquarters (lambsquarters [1]; Preemergence, 250 g ai/ha) | Lambsquarters plant response rating (lambsquarters [1]; preemergence, 62 g ai/ha, 13 to 15 days) | Plant response rating, Lambsquarters (lambsquarters [1]; preemergence, 125 g ai/ha, 13 to 15 days, scale 0 to 100, 0 = no effect, 100 = complete control) | Plant response rating, Morningglory (morningglory; [5])
5: Plant response rating (scale of 0 to 100 where 0 is no effect and 100 is complete control), Blackgrass (blackgrass; [3]) | Blackgrass plant response rating (blackgrass; [4]) | Plant response rating (scale of 0 to 100 where 0 is no effect and 100 is complete control), Ryegrass, Italian (ryegrass, Italian; [3]) | Ryegrass, Italian plant response rating (ryegrass, Italian; [4]) | Plant response rating, Ryegrass, Italian (ryegrass, Italian; [6]) | Plant response rating (scale of 0 to 100 where 0 is no effect and 100 is complete control), Crabgrass, Large (crabgrass, large; [3]) | Crabgrass, Large plant response rating (crabgrass, large; [4]) | Plant response rating (scale of 0 to 100 where 0 is no effect and 100 is complete control), Nutsedge, Yellow (nutsedge, yellow; [3]) | Nutsedge, Yellow plant response rating (nutsedge, yellow; [4]) | Plant response rating, Nutsedge, Yellow (nutsedge, yellow; [6]) | Plant response rating (scale of 0 to 100 where 0 is no effect and 100 is complete control), Barnyardgrass (barnyardgrass; [3]) | Barnyardgrass plant response rating (barnyardgrass; [4]) | Plant response rating, Barnyardgrass (barnyardgrass; [6]) | Plant response rating (scale of 0 to 100 where 0 is no effect and 100 is complete control), Oat, Wild (oat, wild; [3]) | Oat, Wild plant response rating (oat, wild; [4])
85: Plant response rating, Oilseed Rape (oilseed rape; [5]) | Plant response rating (scale of 0 to 100 where 0 is no effect and 100 is complete control), Kochia (kochia; [3])
10: Plant response rating, Blackgrass (blackgrass; [5]) | Plant response rating, Blackgrass (blackgrass; [6]) | Plant response rating, Ryegrass, Italian (ryegrass, Italian; [5]) | Plant response rating, Crabgrass, Large (crabgrass, large; [6])
